Experiments:
P-glycoprotein (P-gp) = details: cited from earlier work
[1] = in vivo
Procedure: Additional details of the bioanalytical methods are available in the Supplementary Appendix. Serial blood samples were collected in Parts 1 and 2 on day 1 of cycles 1, 2, and 3, and every 3 cycles thereafter (Supplementary Table 1). […] Concentration–time profiles were plotted for each analyte, and individual and mean plasma concentration–time data and pharmacokinetic parameters were summarized using descriptive statistics.
Pharmacokinetic analyses were performed using the validated Phoenix™ WinNonlin® software (v6.2.1; […]). Noncompartmental analysis (model, Plasma; dose, extravascular) was applied for the pharmacokinetic analysis. The pharmacokinetics outputs were created using SAS v9.3 (SAS Institute Inc., Cary, NC, USA). Summary statistics, including N, mean, SD, % coefficient of variation, geometric mean, median, minimum, and maximum, were calculated for plasma concentration of each analyte at each time point and for the derived pharmacokinetic parameters.

Structure (SMILES): CNC(=O)c1ccc(N2C(=S)N(c3cnc(C#N)c(C(F)(F)F)c3)C(=O)C23CCC3)cc1F [Apalutamide, apalutamide]
- Reduction in AUC0–last of fexofenadine (P-glycoprotein (P-gp); patients with CRPC): 30%

Structure (SMILES): O=C(O)c1cccc2cn(-c3ccc(C4CCCNC4)cc3)nc12 (stereo not drawn) [M1]
- Metabolite-to-parent ratios [1]: below 1

Structure (SMILES): CO[C@H]1/C=C/O[C@@]2(C)Oc3c(C)c(O)c4c(O)c(c(/C=N/N5CCN(C)CC5)c(O)c4c3C2=O)NC(=O)/C(C)=C\C=C\[C@H](C)[C@H](O)[C@@H](C)[C@@H](O)[C@@H](C)[C@H](OC(C)=O)[C@@H]1C [Rifampin]
- Decrease in exposure of various P-gp substrates (P-glycoprotein (P-gp); human, not told): ≤ 67%

Source: publication PMC8149334 (Cancer Chemotherapy and Pharmacology, 2021)
